Results taken from patent US20130274258A1, “CARBAZOLE AND CARBOLINE DERIVATIVES, AND PREPARATION AND THERAPEUTIC APPLICATIONS THEREOF” (PHILIP MORRIS PRODUCTS S.A., priority 2010, published 2013).

Tests used:
colon carcinoma HCT116 = test: Xenograft model in nude mice, colon carcinoma HCT116; format: in vivo, human
Experimental: (§1) The compounds of the invention were evaluated in human tumor xenograft mouse models. Nude mice were subcutaneously implanted with tumor cells (melanoma A2058, colon carcinoma HCT116, fibrosarcoma HT1080 and acute myelocytic leukemia MV114) and when the tumor reached a volume of about 100-150 mm^3, treatment was initiated. Tumor growth was followed over time until tumor volume reached 1000-1500 mm^3 or up to 60 days. An example of how tumor developed over time when the animals were administered or not with E3 three times once a week (qwk×3) is presented in FIG. 7. […]

[1] = Pharmacokinetics after intravenous injection, plasma concentration; format: in vivo; settings: mice, 15 mg/kg intravenous
Experimental: The pharmacokinetics of E3 and E35 were investigated. Mice intravenously injected with 15 mg/kg of E3 were bled after 0, 1, 5, 10, 20, 30, 60, 120 and 480 minutes. […] For E35, mice intravenously injected with 30 mg/kg of […] were bled after 0, 1, 5, 10, 20, 30, 60, 120 and 480 minutes. […] Concentration then decreased steadily over the 8 hours of the study. During the first four hours after injection, circulating concentrations of E3 and E35 were found largely similar.

human tumor xenograft = test: Human tumor xenograft mouse models, summary over models; format: in vivo; settings: nude mice, three times once a week (qwk×3), FIG. 7
Experimental: as §1

Jurkat cells [2] = test: Jurkat cell viability, resazurin (Alamar Blue) assay; format: cell-based; settings: Homo sapiens, Jurkat
Experimental: The compounds were tested for pharmacological activity. In each of the tests, each compound was tested at […] in duplicates. […] The percentage of response relative to the DMSO control was then calculated for the mean value of the duplicates of each test. The values of the three tests were finally averaged and the standard deviations calculated.
Jurkat cells (10'000 cells/well) were incubated in the presence of various concentrations of compounds, doxorubicin or staurosporine. Twenty-two hours later, cells were incubated with resazurin (20 μg/ml) for 4 hours and fluorescence was measured at 590 nm.

[3] = Solubilization in intravenous formulation; format: physicochemical; settings: aqueous with cosolvent or surfactant or cyclodextrin; 5% Cremophor and 5% ethanol in water
Text: This formulation was then used for the subsequent animal studies (maximal tolerated dose, pharmacokinetics and efficacy in cancer models).

melanoma A2058 = test: Xenograft model in nude mice, melanoma A2058; format: in vivo, human
Experimental: as §1

Jurkat cells [4] = test: Annexin V staining of Jurkat cells by flow cytometry; format: cell-based; settings: Homo sapiens, 22 hours, 0.005 to 10 μM, read-out: half-maximal annexin V staining
Experimental: Jurkat cells were cultured for 22 hours in the presence of E3 at 1.1 μM from a stock solution at 10 mM in DMSO or in the presence of graded concentrations of E3 (0.005 to 10 μM). Then, the cell's were stained with phycoerythrin-labeled annexin V following the instructions of the manufacturer (Millipore) and analyzed by flow cytometry (Guava, Millipore) to determine annexin V staining.

purified porcine tubulin = purified porcine tubulin (Sus scrofa, UniProt P02550+P02554); test: Inhibition of 3H-labeled colchicine binding to purified tubulin, scintillation proximity assay; settings: graded doses
purified porcine tubulin, sequence (P02554 whole entry): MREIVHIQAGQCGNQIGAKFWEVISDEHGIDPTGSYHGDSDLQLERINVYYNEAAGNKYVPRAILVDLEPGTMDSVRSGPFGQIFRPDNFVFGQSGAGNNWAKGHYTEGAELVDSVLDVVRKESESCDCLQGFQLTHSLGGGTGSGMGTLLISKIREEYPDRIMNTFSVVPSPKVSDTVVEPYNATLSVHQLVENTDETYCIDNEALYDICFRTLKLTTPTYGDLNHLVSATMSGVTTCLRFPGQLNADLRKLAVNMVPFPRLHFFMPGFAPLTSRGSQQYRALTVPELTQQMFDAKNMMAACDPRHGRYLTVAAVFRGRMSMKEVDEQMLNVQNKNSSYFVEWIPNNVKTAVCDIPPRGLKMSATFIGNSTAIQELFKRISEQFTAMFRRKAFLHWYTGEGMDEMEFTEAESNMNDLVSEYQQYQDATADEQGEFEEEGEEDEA
purified porcine tubulin, sequence (P02550 whole entry): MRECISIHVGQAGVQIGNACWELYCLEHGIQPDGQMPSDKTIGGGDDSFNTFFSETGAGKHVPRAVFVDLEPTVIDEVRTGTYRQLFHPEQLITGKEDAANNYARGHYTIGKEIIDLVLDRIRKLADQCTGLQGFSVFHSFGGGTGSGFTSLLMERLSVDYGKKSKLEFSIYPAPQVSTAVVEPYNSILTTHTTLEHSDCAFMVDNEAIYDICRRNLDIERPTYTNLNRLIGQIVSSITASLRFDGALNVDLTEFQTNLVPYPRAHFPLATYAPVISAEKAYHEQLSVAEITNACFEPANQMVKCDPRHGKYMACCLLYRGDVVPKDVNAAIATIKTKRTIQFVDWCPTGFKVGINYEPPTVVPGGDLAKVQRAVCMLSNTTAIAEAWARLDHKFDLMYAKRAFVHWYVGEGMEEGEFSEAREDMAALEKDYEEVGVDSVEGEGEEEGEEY
Experimental: A series of compounds according to the invention and C14 vincristine and colchicine were tested for their capacity to inhibit ^3H-labeled colchicine binding to purified tubulin. Briefly, a limiting amount of tritium-labeled colchicine and graded doses of test compounds were added to purified porcine tubulin. After an incubation period, radioactivity associated with tubulin was determined using a scintillation proximity assay. […] By showing that these compounds interact with the colchicine binding site, it differentiates them from the tubulin inhibitors of the Vinca alkaloid- and taxane-types. The results also indicate that the compounds of the invention can be used in combination with the Vinca alkaloid- and taxane-types of tubulin inhibitors since they bind to a different aspect of tubulin, and likely affect tubulin polymerization via a different mechanism. The results also indicate that the compounds of the invention can be used even in patients who are refractory or non-responsive to other tubulin inhibitors, such as the tubulin inhibitors of the Vinca alkaloid- and taxane-types.

[5] = tested on: acute myelocytic leukemia MV114; test: Xenograft model in nude mice, acute myelocytic leukemia MV114; format: in vivo, human
Experimental: as §1

fibrosarcoma HT1080 = test: Xenograft model in nude mice, fibrosarcoma HT1080; format: in vivo, human
Experimental: as §1

caspase 3 and 7 = test: Apoptosis induction in Jurkat cells, caspase 3 and 7 assay; format: cell-based
Experimental: Compounds were assessed for their ability to induce apoptosis of Jurkat cells at 2 and 10 micromolar after 4 and 22 hours.
In order to firmly establish that the compounds of the invention cause cytotoxicity through apoptosis, IC50 of five compounds of the invention, doxorubicin and staurosporin were determined in the caspase assays; results are presented in Table 2. Importantly, the IC50 determined in the Alamar Blue and in the caspase assays were largely overlapping.

[6] = tested on: panel of human tumor cell lines; test: Sensitivity of a panel of human tumor cell lines, Alamar Blue; format: cell-based; settings: graded doses, 22 hours + 4 hours Alamar Blue
Experimental: Sensitivity and resistance of a panel of human tumor cell lines to treatment with E3 were investigated. An optimal number of cells (usually between 2'000 and 5'000 for adherent cells and 10'000 for cells growing in suspension) from the different tumor lines were treated with graded doses of E3. After 22 hours, Alamar Blue was added following the instructions provided by the manufacturer (Invitrogen). Four hours later, fluorescence of the wells was determined at 590 nm.

[7] = median, endpoint = death or defined tumor volume, 23 without treatment

Question: Which results are given for `Cc1nccc2c1[nH]c1ccc(-c3cc(Cl)cc(Cl)c3)cc12` [Example E3, 6-(3,5-dichlorophenyl)-1-methyl-9H-pyrido[3,4-b]indole]?
Answer: % time delay to reach study endpoint relative to no treatment (colon carcinoma HCT116; best treatment): 57%; Days to reach study endpoint with best treatment (colon carcinoma HCT116; [7]): 36 days; exposure (plasma concentration) for several hours [1]: 3 to 10 µg/mL; concentration at 1 min ([1]; mouse, plasma, 1 minute after injection): 60 µg/mL; concentration at 20 min ([1]; mouse, plasma, 20 minutes): 8000 ng/mL; concentration at 8 h ([1]; mouse, plasma, 8 hours): 3000 ng/mL; effect on tumor growth (human tumor xenograft): delayed tumor growth; IC50 (Jurkat cells [2]): 89 nM; solubility [3]: ≤ 3300 µg/mL; % time delay to reach study endpoint relative to no treatment (melanoma A2058; best treatment): 22%; Days to reach study endpoint with best treatment (melanoma A2058; [7]): 28 days; EC50 (Jurkat cells [4]): 100 to 200 nM; inhibition of 3H-labeled colchicine binding to tubulin (purified porcine tubulin): inhibited binding of colchicine; % time delay to reach study endpoint relative to no treatment ([5]; best treatment): 52%; Days to reach study endpoint with best treatment ([5]; median, endpoint = death or defined tumor volume, 21 without treatment): 32 days; % time delay to reach study endpoint relative to no treatment (fibrosarcoma HT1080; best treatment): 91%; Days to reach study endpoint with best treatment (fibrosarcoma HT1080; [7]): 44 days; caspase 3 and 7 activity compared to solvent control (%) (caspase 3 and 7; 2 μM after 4 h): −13.6%; caspase 3 and 7 activity compared to solvent control (%) (caspase 3 and 7; 2 μM after 22 h): 689.0%; caspase 3 and 7 activity compared to solvent control (%) (caspase 3 and 7; 10 μM after 4 h): 12.7%; caspase 3 and 7 activity compared to solvent control (%) (caspase 3 and 7; 10 μM after 22 h): 743.7%; IC50 (caspase 3 and 7; Homo sapiens, Jurkat cells, caspase 3/7 assay): 0.054 µM; sensitivity of tumor cell lines of hematopoietic origin versus other cell lines [6]: more sensitive than the other cell lines
